Experiment [1] concerns the target T1, Solute carrier family 28 member 3 (Homo sapiens, UniProt Q9HAS3).
T1 sequence (Q9HAS3 whole entry): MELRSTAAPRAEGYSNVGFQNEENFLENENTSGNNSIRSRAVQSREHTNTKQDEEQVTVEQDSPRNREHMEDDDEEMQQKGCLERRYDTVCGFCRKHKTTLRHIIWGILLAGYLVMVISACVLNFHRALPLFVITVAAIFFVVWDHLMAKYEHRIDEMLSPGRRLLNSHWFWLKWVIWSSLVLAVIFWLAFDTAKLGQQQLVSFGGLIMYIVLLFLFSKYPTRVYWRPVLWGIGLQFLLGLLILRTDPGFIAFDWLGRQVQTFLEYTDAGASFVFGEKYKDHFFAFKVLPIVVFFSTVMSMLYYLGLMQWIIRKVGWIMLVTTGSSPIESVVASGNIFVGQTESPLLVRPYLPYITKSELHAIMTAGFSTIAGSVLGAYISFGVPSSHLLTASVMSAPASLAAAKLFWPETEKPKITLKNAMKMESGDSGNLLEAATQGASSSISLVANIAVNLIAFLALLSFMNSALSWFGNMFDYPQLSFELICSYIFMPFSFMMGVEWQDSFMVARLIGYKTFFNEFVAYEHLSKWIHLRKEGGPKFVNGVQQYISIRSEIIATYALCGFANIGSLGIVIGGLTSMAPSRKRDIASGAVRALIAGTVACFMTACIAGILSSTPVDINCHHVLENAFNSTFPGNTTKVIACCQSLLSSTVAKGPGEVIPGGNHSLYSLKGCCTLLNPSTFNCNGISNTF
The experiment is described as follows: Binding affinity to human recombinant CNT3 expressed in pig PK15NTD cells assessed as [3H]uridine uptake by beta-scintillation counter. The experiment is classed as cell-based.

The target in experiment [2] is T2, Equilibrative nucleoside transporter 1 (Homo sapiens, UniProt Q99808).
T2 sequence (Q99808 whole entry): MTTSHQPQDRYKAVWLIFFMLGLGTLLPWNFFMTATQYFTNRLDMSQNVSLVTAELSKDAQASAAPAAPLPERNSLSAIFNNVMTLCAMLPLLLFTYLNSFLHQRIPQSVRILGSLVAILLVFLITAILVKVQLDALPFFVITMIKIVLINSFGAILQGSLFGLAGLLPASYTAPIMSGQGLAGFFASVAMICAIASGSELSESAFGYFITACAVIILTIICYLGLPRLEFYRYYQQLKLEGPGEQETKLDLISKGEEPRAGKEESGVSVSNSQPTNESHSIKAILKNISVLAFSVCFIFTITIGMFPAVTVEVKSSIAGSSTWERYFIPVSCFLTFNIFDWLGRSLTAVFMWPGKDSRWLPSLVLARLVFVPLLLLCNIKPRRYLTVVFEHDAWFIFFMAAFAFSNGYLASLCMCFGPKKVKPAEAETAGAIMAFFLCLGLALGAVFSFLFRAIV
The experiment is described as follows: Binding affinity to human ENT1 assessed as [3H]uridine uptake by flow cytometry. (Flow cytometry measures light scatter and fluorescence of single cells or particles in a stream.)

In experiment [3] the target is T3, Sodium/nucleoside cotransporter 1 (Homo sapiens, UniProt O00337).
T3 sequence (O00337 whole entry): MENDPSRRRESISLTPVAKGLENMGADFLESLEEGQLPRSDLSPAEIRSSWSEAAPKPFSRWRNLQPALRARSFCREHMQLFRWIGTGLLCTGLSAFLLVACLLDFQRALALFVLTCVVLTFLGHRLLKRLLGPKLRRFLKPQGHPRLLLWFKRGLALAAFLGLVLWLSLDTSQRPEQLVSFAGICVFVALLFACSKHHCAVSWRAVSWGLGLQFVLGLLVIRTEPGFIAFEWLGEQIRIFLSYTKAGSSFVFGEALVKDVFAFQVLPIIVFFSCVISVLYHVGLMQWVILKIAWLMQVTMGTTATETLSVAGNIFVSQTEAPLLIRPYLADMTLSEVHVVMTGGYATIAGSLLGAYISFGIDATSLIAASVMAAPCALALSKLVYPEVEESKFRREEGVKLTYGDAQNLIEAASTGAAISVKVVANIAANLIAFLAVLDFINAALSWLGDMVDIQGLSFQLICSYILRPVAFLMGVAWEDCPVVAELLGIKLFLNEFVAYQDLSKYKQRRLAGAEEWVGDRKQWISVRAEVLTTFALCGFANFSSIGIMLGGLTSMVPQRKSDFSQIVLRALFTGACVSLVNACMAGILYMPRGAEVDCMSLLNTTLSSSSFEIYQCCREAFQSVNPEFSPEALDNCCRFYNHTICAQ
Description: Inhibition of human CNT1.

Experiment [4] deals with T4, Sodium/nucleoside cotransporter 2 (Homo sapiens, UniProt O43868).
T4 sequence (O43868 whole entry): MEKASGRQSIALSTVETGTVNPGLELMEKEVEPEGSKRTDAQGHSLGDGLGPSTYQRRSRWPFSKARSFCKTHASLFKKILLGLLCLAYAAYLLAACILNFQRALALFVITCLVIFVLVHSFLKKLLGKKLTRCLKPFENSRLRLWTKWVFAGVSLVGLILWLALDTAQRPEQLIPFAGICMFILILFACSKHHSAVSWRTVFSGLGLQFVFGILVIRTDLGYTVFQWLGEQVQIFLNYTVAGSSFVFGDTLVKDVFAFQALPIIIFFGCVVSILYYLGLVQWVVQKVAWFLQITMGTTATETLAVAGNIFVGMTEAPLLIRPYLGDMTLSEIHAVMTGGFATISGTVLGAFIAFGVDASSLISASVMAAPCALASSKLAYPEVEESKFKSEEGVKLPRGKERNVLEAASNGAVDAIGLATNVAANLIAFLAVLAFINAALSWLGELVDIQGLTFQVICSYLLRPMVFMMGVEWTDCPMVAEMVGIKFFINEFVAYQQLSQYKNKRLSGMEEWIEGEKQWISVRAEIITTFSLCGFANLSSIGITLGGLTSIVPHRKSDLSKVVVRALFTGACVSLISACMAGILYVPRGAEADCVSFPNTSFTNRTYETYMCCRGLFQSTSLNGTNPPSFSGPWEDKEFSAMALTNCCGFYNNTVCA
Description: Inhibition of human CNT2.

The term Ki denotes a dissociation constant, usually derived from enzyme kinetics or from competition with a known ligand. By IC50 is commonly meant the concentration at which inhibition is half-maximal. A low value points to higher potency.

On to `CC(=O)c1ccc(O)cc1O`, for which the Ki in experiment [1] was over 100 µM. Same read-out and setting: in the case of `CC(=O)c1c(O)cccc1O` it was over 100 µM; in that of `Oc1ccc(CCCc2c(O)cc(O)cc2O)cc1`, 30 µM. As to `CC(=O)c1c(O)cccc1O[C@@H]1O[C@H](CO)[C@@H](O)[C@H]1O`, the Ki in experiment [1] was 42.1 µM. Take `CC(=O)c1cc(O)cc(O[C@@H]2O[C@H](CO)[C@@H](O)[C@H]2O)c1`: in experiment [1], the Ki is over 100 µM. On to `CC(=O)c1c(O)cccc1O[C@H]1O[C@H](CO)[C@@H](O)[C@H](O)[C@H]1O`, for which, in experiment [1], the Ki is 53.9 µM. `CC(=O)c1c(O)cc(O)cc1O[C@H]1O[C@H](CO)[C@@H](O)[C@H](O)[C@H]1O`: the Ki in experiment [1] worked out at 30.8 µM.

As to `CC(=O)c1cc(O)cc(O[C@H]2O[C@H](CO)[C@@H](O)[C@H](O)[C@H]2O)c1`, in experiment [1], the inhibition constant Ki is over 100 µM. Turning to `CC(=O)c1ccc(O[C@H]2O[C@H](CO)[C@@H](O)[C@H](O)[C@H]2O)cc1O`, in experiment [1], the Ki is over 100 µM. Take `O=C(CCc1ccc(O)cc1)c1c(O)cc(O)cc1O[C@@H]1O[C@H](CO)[C@@H](O)[C@H]1O`: the Ki in experiment [1] is 2.88 µM; in experiment [2] it was over 1000 µM.

Turning to `O=C(CCc1ccccc1)c1ccccc1O[C@@H]1O[C@H](CO)[C@@H](O)[C@H]1O`, the Ki in experiment [1] is over 100 µM. With `CC(=O)c1cc(O)cc(O)c1`, the Ki in experiment [1] was over 100 µM. For the compound `O=C(CCc1ccc(O)cc1)c1c(O)cc(O[C@@H]2O[C@H](CO)[C@@H](O)[C@H](O)[C@H]2O)cc1O`, the Ki in experiment [1] is over 100 µM. As to `CC(=O)c1c(O)cc(O)cc1O[C@@H]1O[C@H](CO)[C@@H](O)[C@H]1O`, the Ki in experiment [1] was determined as 12.4 µM. Turning to `OC[C@H]1O[C@@H](Oc2cc(O)cc(O)c2CCCc2ccc(O)cc2)[C@H](O)[C@@H](O)[C@@H]1O`, in experiment [1], the Ki was determined as 12.3 µM. For `CC(=O)c1c(O)cc(O)cc1O` [2,4,6-TRIHYDROXYACETOPHENONE], the Ki in experiment [1] is over 100 µM. As to `O=[N+]([O-])c1ccc(CSc2ncnc3c2ncn3[C@@H]2O[C@H](CO)[C@@H](O)[C@H]2O)cc1` [NITROBENZYLMERCAPTOPURINE RIBONUCLEOSIDE], the Ki in experiment [1] amounted to 88 µM. Consider `O=C(CCc1ccc(O)cc1)c1c(O)cc(O)cc1O` [PHLORETIN], for which the Ki in experiment [1] came out at 32.3 µM. For the compound `O=C(CCc1ccc(O)cc1)c1c(O)cc(O)cc1O[C@@H]1O[C@H](CO)[C@@H](O)[C@H](O)[C@H]1O` [PHLORIZIN], the IC50 in experiment [3] worked out at 250 µM; in experiment [4] it was 100 µM. The figures for the Ki in experiment [1] and in experiment [2] were 16 µM and over 1000 µM, respectively.

The values above are taken from ChEMBL document CHEMBL1141030, “Synthesis and biological evaluation of phloridzin analogs as human concentrative nucleoside transporter 3 (hCNT3) inhibitors” (Bioorg Med Chem Lett, 2009).
